Measured values from US8592374B2, “Neurotrophic peptides” (Research Foundation for Mental Hygiene, Inc., priority 2007, dated 2013).
“Also recorded” adds a separate entry of the source. Peptide text beside a SMILES is read from it. * marks the point of attachment. X1 = NC(=O)C12CC3CC(CC(N*)(C3)C1)C2

Tests used:
[1] = General examination (physical state, body weight, exploratory activity, swim speed, floating); type: in vivo, mice; details: 25 nmol/day for 35 days
[2] = test system: normal adult mice; experiment: Open field, time in the centre of the arena (anxiety); type: in vivo; details: 25 nmol/day, first five minutes of familiarization session
Method: For the compound treatment, mice (8 animals/group) received subcutaneous implants of extended release depot pellets containing P21 or P22 at 25 nmol/day for 35 days of continuous dosing (Innovative Research of America, USA). For the control group (8 animals), pellets consisted of the carrier polymer only. Mice were anesthetized with 2.5% Avertin (0.38 ml for a 25 g animal). Under sterile conditions, pellets were implanted subcutaneously along the anterolateral aspect of the right shoulder with a precision trochar (Innovative Research of America). After recovery of anesthesia, animals were transferred to the animal colony. No complications associated with the implantation and treatment were observed. All procedures on animals were conducted in accordance with approved protocols from our Institutional Animal Welfare Committee.
The test used was an adaptation of the procedure previously described by Sargolini and collaborators (Sargolini, F., et al. Behav Brain Res 138 (2003):153-63). The testing apparatus was a classic open field (i.e. a PVC square arena, 50×50 cm, with walls 40 cm high). The open field was placed in a part of the room separated from the experimentator with a black opaque curtain. […] Object discrimination was calculated as follows: OD=(time spent close to new object)/(time spent close to new object)+(time spent close to old object)×100

CC(=O)N[C@@H](CC(=O)O)C(=O)NCC(=O)NCC(=O)N[C@@H](CC(C)C)C(=O)NC12CC3CC(C1)CC(C(N)=O)(C3)C2 [Peptide P21, Ac-DGGL^AG-NH2] (Ac-DGGL-X1)
floating behavior in the water maze task (sign of depression or locomotor impairment) [1]: no floating behavior was observed | swim speed ([1]; water maze): no alteration; also recorded: did not induce any effect | level of anxiety (time in the center of the open field) [2]: spent more time in the center of the open field than control animals; also recorded: reduced anxiety level
